Values quoted from earlier work as cited in patent US12569533B2, “Bruising and filler compositions and methods for use” (Alastin Skincare, Inc., priority 2021, dated 2026).

System: hyaluronic acid level
Settings: ex vivo human skin model

## CCCCCCCC(=O)CCc1ccc(O)c(OC)c1 [Hydroxymethoxyphenyl decanone]
dermal
  stimulation of dermal hyaluronic acid level versus placebo: 259%
epidermal
  stimulation of epidermal hyaluronic acid level versus placebo: 198%
